This assay has as its system sperm promoter epigenome (DNA methylation). Put plainly: MeDIP-Chip (Nimblegen promoter tiling array, competitive hybridization) of F3 sperm DNA with qPCR validation. Particulars: F3 generation sperm. Type of assay: in vivo, mouse. On the procedure:
Sperm heads were separated from tails and purified following the protocol described^53 (without protease inhibitors) from a total of six F3 vinclozolin generation mice and six F3 control generation mice in the range of 13-15 months of age. Sperm heads were then further purified using a 70% sucrose gradient centrifugation, based on the method described.^54 Purified sperm heads were resuspended in 1 ml buffer 0.5M tris-HCl, pH 8, 0.5M EDTA, 10% SDS and treated with 100 μl proteinase K (20 mg/mL) and 100 μl DDT (0.1 M) at 55° C. for 1 hour. DNA was precipitated with 50% isopropanol, washed with 70% ethanol and resuspended in DEPC H20. Individual sperm DNA was used as samples for further methylated DNA immunoprecipitation.^15 Two pools of samples were produced for each experimental treatment (control and vinclozolin), therefore each pool contained DNA from three animals from different litters. The MeDIP was performed as follows: 6 μg of genomic DNA was subjected to series of three 20 pulse sonications at 20% amplitude and the appropriate fragment size (200-1000 bp) was verified through 2% agarose gels; the sonicated genomic DNA was resuspended in 350 μl TE and denaturated for 10 min at 95° C. and then immediately placed on ice for 5 min; 100 μl of 5×IP buffer (50 mM Na-phosphate pH7, 700 mM NaCl, 0.25% Triton X-100) was added to the sonicated and denatured DNA.
An overnight incubation of the DNA was performed with 5 μg of antibody anti-5-methylcytidine monoclonal from Diagenode S.A at 4° C. on a rotating platform. Protein A/G beads from Santa Cruz were prewashed on PBS-BSA 0.1% and resuspended in 40 μl 1× IP buffer. Beads were then added to the DNA-antibody complex and incubated 2 h at 4° C. on a rotating platform. Beads bound to DNA-antibody complex were washed 3 times with 1 ml 1×IP buffer; washes included incubation for 5 min at 4° C. on a rotating platform and then centrifugation at 6000 rpm for 2 min. Beads-DNA-antibody complex were then resuspended in 250 μl digestion buffer (50 mM Tris HCl pH 8, 10 mM EDTA, 0.5% SDS) and 3.5 μl of proteinase K (20 mg/ml) was added to each sample and then incubated overnight at 55° C. on a rotating platform. DNA purification was performed first with phenol and then with chloroform: isoamyl alcohol. Two washes were then performed with 70% ethanol, 1 M NaCl and glycogen. MeDIP-selected DNA was then resuspended in 30 μl TE buffer. MeDIP sperm DNA was pooled into each of the four above mentioned groups, adding equal amounts of sperm DNA from each individual sample to the pools. Therefore, a total of four pools of MeDIP sperm DNA (C1, C2, V1 and V2) were used for the ChIP arrays.
Nimblegen Mouse Promoter 3×720K format microarray (Mouse Ref Seq promoter array) was used, each subarray contains 709,520 probes. […]
(In general: Quantitative PCR measures a nucleic acid by following its amplification.)

As to `C=CC1(C)OC(=O)N(c2cc(Cl)cc(Cl)c2)C1=O` (racemic) [vinclozolin, (RS)-3-(3,5-dichlorophenyl)-5-methyl-5-vinyl-1,3-oxazolidine-2,4-dione], under “CD-1”, the “number of confirmed sites with decreased DNA methylation” value is 12 and the “number of confirmed sites with increased DNA methylation” value is reported as 28. The “number of promoters with differential DNA methylation regions (DMR), MeDIP-Chip” value (CD-1, vinclozolin 100 mg/kg/day lineage vs control) was determined as 66. Further, the “number of DMR confirmed with qPCR” value (CD-1, vinclozolin lineage vs control) amounted to 40.

The values are drawn from patent publication US9734283B2, “Genomic features associated with epigenetic control regions and transgenerational inheritance of epimutations” (priority 2011, dated 2017).
